Measurements reported in patent publication US11945781B2, “Compounds for the treatment of acute and chronic kidney disease” (Southern Research Institute, priority 2020, dated 2024).
Read-outs that look alike come from different tables or passages of the source.

Test system: heme oxygenase-1 (HO-1)
Test: HO-1 promoter luciferase reporter screen (pHOGL3/4.5+220 stable HEK293 cells)
Type: cell-based, human
Conditions: Table 1; for Emax: HEK293, Emax as % of 5 μM hemin; for EC50: evaluation of thioquinolinones, HEK293 HO-1 reporter
Procedure: The generation of the pHOGL3/4.5+220 construct is described in Deshane, et al. (2010) “SpI regulates chromatin looping between an intronic enhancer and distal promoter of the human heme oxygenase-1 gene in renal cells” J Biol Chem 285(22): 16476-86. See also FIG. 1.
Briefly, BamHI sites were added to the 4.5-kb PCR product generated by long-range PCR from a bacterial artificial chromosome clone containing portions of chromosome 22 (accession no. Z82244), including the HO-1 gene. This fragment was cloned into the Bg/II restriction site of the multiple cloning region to make the parental clone (pHOGL3/4.5). The 220-bp intronic enhancer was amplified with SalI sites on either end and cloned into the SalI site of the vector to generate pHOGL3/4.5+220.
In order to generate cells that stably express luciferase expression vectors that lack a mammalian antibiotic selection cassette, HEK293 cells were co-transfected with either pHOGL3/4.5+220 (Deshane et al, 2010) or the Triple Mutant construct (Liby, Hock et al, 2005; Hock et al, 2007) and pcDNA3.1 Zeocin using Lipofectamine 2000. Cells were cultured in Zeocin (400 ug/ml; Invitrogen) for selection. Individual clones were sorted by flow cytometry and plated into a 96-well plate at a density of one cell per well. Clones were maintained and expanded in complete media (DMEM/10% FBS/1× antibiotic-antimycotic) supplemented with 100 ug/ml Zeocin, and incubated at 37° C. in 5% carbon dioxide. Incorporation of the Luciferase expression vectors was validated by assaying for luciferase. […]

| Structure (SMILES) | EC50 (Homo sapiens, read-out: EC50) [nM] | EC50 | Emax (Homo sapiens) [%] |
| --- | --- | --- | --- |
| Oc1c(F)cc(CSc2cccc3cccnc23)cc1F [Compound 1, 2,6-difluoro-4-((quinolin-8-ylthio)methyl)phenol] | 430 |  | 154 |
| Oc1ccc(CSc2cccc3cccnc23)cc1 [Compound 2] | 340 |  | 127 |
| Oc1ccc(CSc2cccc3cccnc23)cc1F [Compound 3] | 200 |  | 83.7 |
| Oc1ccc(CSc2cccc3cccnc23)cc1Cl [Compound 4] | 340 |  | 106 |
| Oc1c(F)cc(CSc2cccc3cccnc23)cc1Cl [Compound 5] | 420 |  | 113 |
| Oc1c(F)cc(F)cc1CSc1cccc2cccnc12 [Compound 7] | 5250 |  | 55.2 |
| Fc1cc(F)cc(CSc2cccc3cccnc23)c1 [Compound 8] |  | Inactive |  |
| [O-][S+](Cc1cc(F)c(O)c(F)c1)c1cccc2cccnc12 (stereo not drawn) [Compound 9] | 340 |  | 106 |
| Oc1ccc(COc2cccc3cccnc23)cc1 [Compound 11] |  | Inactive |  |
| Oc1c(F)cc(CCSc2cccc3cccnc23)cc1F [Compound 12] |  | Inactive |  |
| Oc1ccc(CSc2cccc3cccnc23)cc1 [Compound 14] |  | Inactive |  |
| Oc1c(F)cc(CSc2nccc3ccccc23)cc1F [Compound 16] |  | Inactive |  |
| Oc1c(F)cc(CSc2ccncc2)cc1F [Compound 17] |  | Inactive |  |
| Oc1c(F)cc(CSc2cccc3ccccc23)cc1F [Compound 18] |  | Inactive |  |
| COc1c(F)cc(CCSc2cccc3cccnc23)cc1F [Compound 20] | 20000 |  | 69.9 |

Now from value to molecule, other results behind:

| EC50 (Homo sapiens, read-out: EC50) [nM] | EC50 | Structure (SMILES) | Emax (Homo sapiens) [%] |
| --- | --- | --- | --- |
| 1050 |  | Oc1c(F)c(F)c(CSc2cccc3cccnc23)c(F)c1F [Compound 6] | 113 |
|  | Inactive | O=S(=O)(Cc1cc(F)c(O)c(F)c1)c1cccc2cccnc12 [Compound 10] |  |
| 19000 |  | Oc1ccc(CCSc2cccc3cccnc23)cc1 [Compound 13] | 122 |
|  | Inactive | Oc1c(F)cc(CSc2ccnc3ccccc23)cc1F [Compound 15] |  |
|  | Inactive | COc1c(F)cc(CSc2cccc3cccnc23)cc1F [Compound 19, 8-((3,5-difluoro-4-methoxybenzyl)thio)quinolone] |  |
|  | Inactive | O=S(=O)(Nc1cc(F)c(O)c(F)c1)c1cccc2cccnc12 [Compound 21] |  |
|  | Inactive | O=C(Nc1cccc2cccnc12)c1cc(F)c(O)c(F)c1 [Compound 22] |  |
|  | Inactive | O=C(Nc1cc(F)c(O)c(F)c1)c1cccc2cccnc12 [Compound 23] |  |
